In US12215133B2 (BrightGene Bio-Medical Technology Co., Ltd., priority 2021, dated 2025):
Where two headings read alike, the source gives them in different places. Marks after values point to notes of the source that are not given here.

Tested on: C57BL/6 mouse model having STZ-HFD feed-induced diabetes combined NASH
Format: in vivo
Details: STZ+HFD C57BL/6 mice; for Fasting blood glucose / Ballooning lesion (score) / Inflammatory cell infiltration (score) / Steatosis (score) / Total score of NAS / Fibrosis percentage / % HbAC (glycosylated hemoglobin) / ALT / AST / HDL-c / LDL-c / TC / TG / Percentage of decrease in % HbAC: Mean ± SEM; for Ballooning lesion (score) / Inflammatory cell infiltration (score) / Steatosis (score) / Total score of NAS / Fibrosis percentage / % HbAC (glycosylated hemoglobin) / ALT / AST / HDL-c / LDL-c / TC / TG: 7 weeks; for Ballooning lesion (score) / Inflammatory cell infiltration (score) / Steatosis (score) / Total score of NAS: liver H&E; for Ballooning lesion (score) / Inflammatory cell infiltration (score) / Steatosis (score): NAS criteria; for Fibrosis percentage: liver sirius red staining; for % HbAC (glycosylated hemoglobin): peripheral blood; for ALT / AST / HDL-c / LDL-c / TC / TG: serum; for HbA1c % decreased by, taking the HbA1C % of the model group as the baseline value: FIG. 20; for Percentage of decrease in % HbAC: model group as baseline; for Number of animal deaths: 13 enrolled
Description: According to the dosage regimen, a certain amount of Tirzepatide and BG128 were weighed and the vehicle (pH=7.0, 20 mM sodium citrate buffer) was added to formulated to the corresponding concentration.
• Germline: C57BL/6 • Grade: SPF level • Number and gender: 30 pregnant female mice • Supplier: Shanghai Jihui Laboratory Animal Care Co., Ltd. 1.3.2 Animal Feeding Management
Animals were kept in the barrier system, the environmental conditions in the animal room were controlled as room temperature of 20° C.-26° C. and humidity of 40%-70%, and the breeders recorded once every morning and afternoon. Free drinking and normal feeding.
Newborn male mice were subcutaneously injected with STZ (100 μg/mouse) within 48 h of birth and fed by the female mice for four weeks, then the fasting blood glucose of the male mice was determined.
10 newborn male mice were selected, without STZ injection, and fed by the female mice for four weeks. The male mice were separated into cages and fed with normal maintenance feed and used as the normal control group; other mice were fed with HFD feed for one week, the fasting blood glucose of the animals was determined, and according to the fasting blood glucose and body weight, the animals were randomly grouped into: normal control group, model group, Tirzepatide—0.15 mg/kg group, BG128—0.05 mg/kg group, BG128—0.15 mg/kg group, and BG128—0.5 mg/kg group, and see Table 12 for details.
Administration began on the first day of week 2 of HFD feed feeding, and the experiment was ended after 7 weeks of continuous administration.
Observation was performed at the start of the experiment once a day until the end of the experiment.
The animals were weighed once every three days from the time of feeding with HFD feed until the end of the experiment.
The food intake of the animals was recorded from the time of feeding with HFD feed until the end of the experiment. The remaining amount was weighed before administration each time.
The fasting blood glucose was determined using the Roche blood glucose meter after 4 weeks of breast-feeding by the female mouse (that is, before HFD feeding), before administration, and 1 week, 2 weeks, 3 weeks, 4 weeks, 5 weeks, 6 weeks and 7 weeks after administration and at the end point of experiment.
3 days after the last administration, the animals were weighed and fasted for 6 hours; all experimental animals were anesthetized by intraperitoneal injection of pentobarbital sodium, non-anticoagulated whole blood was collected through the orbital venous plexus, stood at room temperature for 30 minutes, and centrifuged at 5000 rpm for 5 minutes, the serum was separated and frozen at −80° C. for the biochemical determination; and EDTA-K2 anticoagulated whole blood was collected through the orbital venous plexus and placed on wet ice for the determination of HbA1C content.
The serum sample was taken from −80° C., and the contents of ALT, AST, TG, TC, HDL-c and LDL-c in serum and HbA1C in whole blood were determined by Hitachi 7060 automatic biochemical detector, and the content of insulin was determined by enzyme-linked immunosorbent assay kit.
The mice were dissected according to procedure. After perfusion with pre-cooled normal saline, the liver was taken, photographed, weighed, soaked in 10% formalin and fixed for pathological HE staining. Liver paraffin sections of all animals were stained with HE according to KCI pathological staining standard SOP. All the stained sections were panoramically scanned by NanoZoomer Digital Pathology (S210, Hamamaci, Japan) scanner, and then observed at different magnifications by selecting different fields of view.
The mice were dissected according to procedure. After perfusion with pre-cooled normal saline, the liver was taken, photographed, weighed, soaked in 10% formalin and fixed for pathological sirius red (SR) staining. Liver paraffin sections were stained with SR according to KCI pathological staining standard SOP.

[1] = 0.05 mg/kg s.c. once every three days
[2] = 0.15 mg/kg s.c. once every three days
[3] = 0.5 mg/kg s.c. once every three days

Structure (SMILES): CNC(CCCCNC(=O)COCCOCCOCCNC(=O)COCCOCCOCCNC(=O)CCC(NC(=O)CC(=O)O)C(=O)O)C(N)=O (centres unmarked) [BG128]
- Fasting blood glucose (0.05 mg/kg group, Before HFD (baseline)): 18.28 ± 1.18 mmol/L
- Fasting blood glucose (0.05 mg/kg group, Before administration (baseline)): 25.59 ± 0.91 mmol/L
- Ballooning lesion (score) [1]: 0.00 ± 0.00
- Inflammatory cell infiltration (score) [1]: 0.91 ± 0.08ª
- Steatosis (score) [1]: 0.52 ± 0.12ª
- Total score of NAS [1]: 1.42 ± 0.14ª
- Fibrosis percentage [1]: 1.11 ± 0.05^a %
- % HbAC (glycosylated hemoglobin) [1]: 1.00 ± 0.23
- ALT [1]: 73.97 ± 9.20 U/L
- AST [1]: 155.44 ± 10.85 U/L
- HDL-c [1]: 2.30 ± 0.09 mmol/L
- LDL-c [1]: 0.56 ± 0.03^b mmol/L
- TC [1]: 3.81 ± 0.15^c mmol/L
- TG [1]: 1.09 ± 0.20^b mmol/L
- Fasting blood glucose (0.05 mg/kg s.c. once every three days, Administration for 1 week): 15.62 ± 1.42^a mmol/L
- Fasting blood glucose (0.05 mg/kg s.c. once every three days, Administration for 2 weeks): 14.13 ± 1.61^a mmol/L
- Fasting blood glucose (0.05 mg/kg s.c. once every three days, Administration for 3 weeks): 16.89 ± 1.85^a mmol/L
- Fasting blood glucose (0.05 mg/kg s.c. once every three days, Administration for 4 weeks): 12.89 ± 1.83^a mmol/L
- Fasting blood glucose (0.05 mg/kg s.c. once every three days, Administration for 5 weeks): 18.32 ± 1.62^a mmol/L
- Fasting blood glucose (0.05 mg/kg s.c. once every three days, Administration for 6 weeks): 21.82 ± 2.11^a mmol/L
- Fasting blood glucose (0.05 mg/kg s.c. once every three days, Administration for 7 weeks): 18.89 ± 1.89^a mmol/L
- Fasting blood glucose (0.05 mg/kg s.c. once every three days, Endpoint): 15.81 ± 1.83^a mmol/L
- serum insulin concentration (0.05 mg/kg s.c. once every three days, FIG. 19): decreased
- HbA1c % decreased by, taking the HbA1C % of the model group as the baseline value [1]: 0.97%
- Percentage of decrease in % HbAC [1]: −0.97 ± 0.23
- Fasting blood glucose (0.15 mg/kg group, Before HFD (baseline)): 17.69 ± 0.81 mmol/L
- Fasting blood glucose (0.15 mg/kg group, Before administration (baseline)): 25.71 ± 0.91 mmol/L
- tolerance of model animals [2]: good tolerance
- Ballooning lesion (score) [2]: 0.00 ± 0.00ª
- Inflammatory cell infiltration (score) [2]: 0.90 ± 0.06ª
- Steatosis (score) [2]: 0.46 ± 0.13ª
- Total score of NAS [2]: 1.36 ± 0.15ª
- Fibrosis percentage [2]: 1.10 ± 0.04^b %
- % HbAC (glycosylated hemoglobin) [2]: 1.31 ± 0.19
- ALT [2]: 67.58 ± 7.73^a U/L
- AST [2]: 152.48 ± 6.56^a U/L
- HDL-c [2]: 1.83 ± 0.22 mmol/L
- LDL-c [2]: 0.65 ± 0.10^c mmol/L
- TC [2]: 3.25 ± 0.12^c mmol/L
- TG [2]: 0.84 ± 0.12^b mmol/L
- Fasting blood glucose (0.15 mg/kg s.c. once every three days, Administration for 1 week): 15.43 ± 1.66^a mmol/L
- Fasting blood glucose (0.15 mg/kg s.c. once every three days, Administration for 2 weeks): 14.61 ± 1.45^a mmol/L
- Fasting blood glucose (0.15 mg/kg s.c. once every three days, Administration for 3 weeks): 14.83 ± 1.49^a mmol/L
- Fasting blood glucose (0.15 mg/kg s.c. once every three days, Administration for 4 weeks): 14.52 ± 2.09^a mmol/L
- Fasting blood glucose (0.15 mg/kg s.c. once every three days, Administration for 5 weeks): 15.75 ± 1.81^a mmol/L
- Fasting blood glucose (0.15 mg/kg s.c. once every three days, Administration for 6 weeks): 17.88 ± 2.05^a mmol/L
- Fasting blood glucose (0.15 mg/kg s.c. once every three days, Administration for 7 weeks): 17.26 ± 1.97^a mmol/L
- Fasting blood glucose (0.15 mg/kg s.c. once every three days, Endpoint): 16.85 ± 2.04^a mmol/L
- serum insulin concentration (0.15 mg/kg s.c. once every three days, FIG. 19): statistically significant compared with the db/db-NDJ group
- HbA1c % decreased by, taking the HbA1C % of the model group as the baseline value [2]: 0.66%
- Percentage of decrease in % HbAC [2]: −0.66 ± 0.19
- Fasting blood glucose (0.5 mg/kg group, Before HFD (baseline)): 18.59 ± 0.88 mmol/L
- Fasting blood glucose (0.5 mg/kg group, Before administration (baseline)): 25.81 ± 1.08 mmol/L
- tolerance of model animals (0.50 mg/kg s.c. once every three days): good tolerance
- Ballooning lesion (score) [3]: 0.00 ± 0.00
- Inflammatory cell infiltration (score) [3]: 1.03 ± 0.05ª
- Steatosis (score) [3]: 0.33 ± 0.08ª
- Total score of NAS [3]: 1.36 ± 0.10ª
- Fibrosis percentage [3]: 1.07 ± 0.05^c %
- % HbAC (glycosylated hemoglobin) [3]: 0.94 ± 0.25^a
- ALT [3]: 58.46 ± 5.38^b U/L
- AST [3]: 150.54 ± 6.26^a U/L
- HDL-c [3]: 2.13 ± 0.13 mmol/L
- LDL-c [3]: 0.62 ± 0.03^c mmol/L
- TC [3]: 3.53 ± 0.09^c mmol/L
- TG [3]: 0.88 ± 0.14^b mmol/L
- Fasting blood glucose (0.5 mg/kg s.c. once every three days, Administration for 1 week): 11.39 ± 0.86^a mmol/L
- Fasting blood glucose (0.5 mg/kg s.c. once every three days, Administration for 2 weeks): 12.82 ± 1.12^a mmol/L
- Fasting blood glucose (0.5 mg/kg s.c. once every three days, Administration for 3 weeks): 13.35 ± 1.37^a mmol/L
- Fasting blood glucose (0.5 mg/kg s.c. once every three days, Administration for 4 weeks): 11.39 ± 1.20^a mmol/L
- Fasting blood glucose (0.5 mg/kg s.c. once every three days, Administration for 5 weeks): 12.31 ± 1.47^a mmol/L
- Fasting blood glucose (0.5 mg/kg s.c. once every three days, Administration for 6 weeks): 12.17 ± 1.70^abd mmol/L
- Fasting blood glucose (0.5 mg/kg s.c. once every three days, Administration for 7 weeks): 10.45 ± 1.34^acd mmol/L
- Fasting blood glucose (0.5 mg/kg s.c. once every three days, Endpoint): 12.27 ± 1.61^a mmol/L
- serum insulin concentration (0.5 mg/kg s.c. once every three days, FIG. 19): statistically significant compared with the db/db-NDJ group
- HbA1c % decreased by, taking the HbA1C % of the model group as the baseline value [3]: 1.04%
- Percentage of decrease in % HbAC [3]: −1.04 ± 0.25
- Number of animal deaths (Group-3/Group-5, 0.15 mg/kg s.c. once every three days): 0
- Number of animal deaths (Group-4, 0.05 mg/kg s.c. once every three days): 2 (Day 45, 51)
- Number of animal deaths (Group-6, 0.5 mg/kg s.c. once every three days): 0
- body weight after the first administration (Tirzepatide 0.15 mg/kg, BG128 0.05, 0.15, 0.5 mg/kg s.c., FIG. 16): positively correlated with the administration dose
- food intake compared with Tirzepatide (equal dose (0.15 mg/kg s.c.), FIG. 17): lower than that of the Trizepatide administration animals in the group with the equal dose
- effect on serum insulin compared with Tirzepatide (equal dose (0.15 mg/kg s.c.), FIG. 19): better than that of the Tirzepatide group at an equal dose
